From PMC6222450, “Computer-Aided Studies for Novel Arylhydantoin 1,3,5-Triazine Derivatives as 5-HT6 Serotonin Receptor Ligands with Antidepressive-Like, Anxiolytic and Antiobesity Action In Vivo” (Molecules : A Journal of Synthetic Chemistry and Natural …, 2018)
“And” between values parts separate entries of the source, which are not always exact repeats. Equal values may be shown once.

Tests used:
[1] = target: T1, 5-HT1A (Homo sapiens, UniProt P08908); experiment: Radioligand binding assay, 5-HT1A, [3H]-8-OH-DPAT; conditions: human receptor stably expressed in HEK-293 cells
T1 construct: expressed in transfected cells; host or cells: HEK-293
T1 sequence (P08908 1-422): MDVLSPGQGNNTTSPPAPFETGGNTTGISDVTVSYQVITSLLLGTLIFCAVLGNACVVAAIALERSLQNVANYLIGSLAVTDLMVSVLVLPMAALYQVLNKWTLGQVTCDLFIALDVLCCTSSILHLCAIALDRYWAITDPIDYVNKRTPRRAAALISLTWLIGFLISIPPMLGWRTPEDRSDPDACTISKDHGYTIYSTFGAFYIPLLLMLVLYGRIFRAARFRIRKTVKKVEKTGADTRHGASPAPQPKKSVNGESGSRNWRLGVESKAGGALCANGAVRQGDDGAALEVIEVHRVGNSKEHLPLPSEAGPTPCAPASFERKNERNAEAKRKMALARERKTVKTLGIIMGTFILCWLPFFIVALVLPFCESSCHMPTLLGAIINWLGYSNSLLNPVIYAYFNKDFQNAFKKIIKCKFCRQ

[2] = target: T2, 5-HT7bR (Homo sapiens, UniProt P34969); experiment: Radioligand binding assay, 5-HT7bR, [3H]-5-CT; conditions: human 5-HT7b receptor stably expressed in HEK-293 cells; read-out: Ki 5-HT7 [3H]-5-CT
T2 construct: expressed in transfected cells; host or cells: HEK-293

[3] = Body weight of non-obese rats fed only standard diet; format: in vivo, rat; conditions: rats consuming standard feed, 5 mg/kg b.w. i.p.
Method: Male Wistar rats (170–190 g) were housed in a pair in plastic cages in constant temperature facilities exposed to a light-dark cycle. Control group (standard diet + vehicle) received vehicle (1% Tween 80, intraperitoneally), while the test group (standard diet + 6 or standard diet + 26) was injected (intraperitoneally) with 6 or 26 at the dose of 5 mg/kg b.w. dissolved in 1% Tween 80 (1 mL/kg). Body weights were measured daily immediately prior to administration of drugs.

[4] = Lipophilicity by RP-TLC; format: physicochemical; conditions: RP-18 TLC, water/methanol, extrapolated to 100% water
Method: For comparison, the active arylmethyl-triazine compounds previously found (1–3) were also examined. Stationary phase RP-18 and mixtures of water/methanol […] as a mobile phase were employed. RM values were calculated from the RF data obtained. […] The regression coefficients (r^2) determined for all compounds were higher than 0.95. On the basis of the linear relationship between RM values and the volume fraction of methanol, values of RM0 in the systems analyzed corresponding to 100% of water were obtained by extrapolation. RM0 values received for the compounds tested ranged from 3.14 to 4.49 (Figure 6).
The mobile phases were prepared by mixing the respective amounts of water and organic modifier (methanol) in a range from 40 to 90% (v/v) in 5% increments. TLC was performed on Silica gel 60RP-18 F254 plates (7 × 10 cm) plates (Merck, Darmstadt, Germany). Methanol was used to prepare the solutions of the substances. Solutions (10 µL) of the analyzed compounds were applied to the plates as 5 mm bands, 10 mm apart and 10 mm from the lower edge and sides of the plates, by using Linomat V applicator (Camag, Basel, Switzerland). The vertical chamber (Sigma–Aldrich, St. Louis, MI, USA), 20 × 10 × 18 cm in size, was saturated with mobile phase for 20 min. Development was carried out over 9 cm from the starting line at a temperature of 20 °C. Next, the plates were dried at room temperature, and the spots were observed under ultraviolet light at 254 nm and/or 366 nm (UV lamp, Camag, Basel, Switzerland). In each case, sharp and symmetric spots without a tendency for tailing were obtained. Each experiment was run in triplicate and mean RF (retardation factor) values were calculated.
Starting from the RF values, the RM parameters were computed as described in the formula:RM = log(1/RF − 1)
The linear correlations between the RM values of the substances and the concentration of methanol in mobile phases were calculated for each compound with the Soczewiński-Wachtmeister equation [22]:RM = RM0 + aC where C is the concentration of the organic modifier (in %) in the mobile phase, a is the slope, and RM0 is the […].

[5] = tested on: HEK-293 cells; experiment: Toxicity in vitro, MTS test; format: cell-based; conditions: 72 h
Method: The preliminary evaluation of the safety profile for the most promising 5-HT6R ligands 6 and 26 was performed in vitro with the HEK-293 eukaryotic cell line. The compounds examined were dissolved in culture growth media and incubated with cells for 72 h. Next, the MTS test was applied to determine the viability of the cells. […] The reference cytostatic drug doxorubicin (DX) at the very low concentration 1 μM was also cytotoxic.
The ATCC CRL 1573 HEK-293 cells were seeded in 96-well plates (NuncTM) at a concentration of 1 × 10^4 cells/well in 200 μL in Dulbecco’s Modified Eagle’s Medium (Gibco®) supplemented with 10% fetal bovine serum (Gibco®), and cultured at 37 °C in an atmosphere containing 5% of CO2 for 24 h to reach 60% confluence. The 10 mM stock solutions of 5-HT6R ligands 6 and 26 in DMSO were diluted into fresh growth medium and added into the microplates at the final concentrations 0.1 μM –100 μM. […] The cytostatic drug doxorubicin (Sigma-Aldrich) at the concentration 1 μM was used as a reference. After 72 h of incubation 20 μL of CellTiter 96® AQueous Non-Radioactive Cell Proliferation Assay (MTS) (Promega®) was added to each well and the cells were incubated under the same conditions for 2 h. The absorbance of the samples was measured using a microplate reader EnSpire (PerkinElmer, Waltham, MA, USA) at 490 nm. Statistical significance was analyzed by GraphPad Prism™ software v. 5.01 (GraphPad Software, La Jolla, CA, USA) using One-way ANOVA and Bonferroni’s Multiple Comparison Post Test.

[6] = target: T3, dopaminergic D2LR (Homo sapiens, UniProt P14416); experiment: Radioligand binding assay, D2LR, [3H]-Raclopride; conditions: human D2L receptor stably expressed in HEK-293 cells; read-out: Ki D2 [3H]-Raclopride
T3 construct: expressed in transfected cells; host or cells: HEK-293

[7] = Body weight of non-obese rats fed palatable diet (model of excessive eating); format: in vivo, rat
Text: In order to determine the anorectic activity of 6 or 26, the model of excessive eating was used. Male Wistar rats (170–190 g) were housed in a pair in plastic cages in constant temperature facilities exposed to a light-dark cycle. Water and food were available ad libitum. Two groups of 6 rats were fed with diets consisting of milk chocolate with nuts, cheese, salted peanuts, and 7% condensed milk and also had access to standard feed (Labofeed B, Morawski Manufacturer Feed, Kcynia, Poland) and water ad libitum for 3 weeks. Palatable control group (palatable diet + vehicle) received vehicle (1% Tween 80, intraperitoneally), while palatable test group (palatable diet + 6 or palatable + 26) was injected (intraperitoneally) with 6 or 26 at the dose of 5 mg/kg b.w. dissolved in 1% Tween 80 (1 mL/kg). Body weights were measured daily, immediately prior to administration of drugs.
The palatable diet contained: 100 g peanuts—614 kcal; 100 mL condensed milk—131 kcal; 100 g milk chocolate—529 kcal; 100g cheese (Greek type)—270 kcal. The standard diet contained 100 g feed—280 kcal.

[8] = target: T4, human serotonin 5-HT6R (Homo sapiens, UniProt P50406); experiment: Radioligand binding assay, 5-HT6R, [3H]-LSD displacement; conditions: for Ki: human receptor stably expressed in HEK-293 cells, mean of at least two independent experiments, read-out: Ki 5-HT6 [3H]-LSD
T4 construct: expressed in transfected cells; host or cells: HEK-293
Method: Five selective radioligands were employed (Table 1).
Radioligand binding assays were used to determine the affinity of the synthesized compounds for human serotonin 5-HT6R, which were stably expressed in HEK-293 cells. […] Each compound was tested in triplicate at 7 to 8 different concentrations (10^−11 to 10^−4 M). The inhibition constants (Ki) were calculated using the Cheng–Prusoff equation [40], and the results are expressed as the mean of at least two independent experiments.

[9] = target: T5, 5-HT2A (Homo sapiens, UniProt P28223); experiment: Radioligand binding assay, 5-HT2A, [3H]-Ketanserin; conditions: human receptor stably expressed in HEK-293 cells
T5 construct: expressed in transfected cells; host or cells: HEK-293
T5 sequence (P28223 whole entry): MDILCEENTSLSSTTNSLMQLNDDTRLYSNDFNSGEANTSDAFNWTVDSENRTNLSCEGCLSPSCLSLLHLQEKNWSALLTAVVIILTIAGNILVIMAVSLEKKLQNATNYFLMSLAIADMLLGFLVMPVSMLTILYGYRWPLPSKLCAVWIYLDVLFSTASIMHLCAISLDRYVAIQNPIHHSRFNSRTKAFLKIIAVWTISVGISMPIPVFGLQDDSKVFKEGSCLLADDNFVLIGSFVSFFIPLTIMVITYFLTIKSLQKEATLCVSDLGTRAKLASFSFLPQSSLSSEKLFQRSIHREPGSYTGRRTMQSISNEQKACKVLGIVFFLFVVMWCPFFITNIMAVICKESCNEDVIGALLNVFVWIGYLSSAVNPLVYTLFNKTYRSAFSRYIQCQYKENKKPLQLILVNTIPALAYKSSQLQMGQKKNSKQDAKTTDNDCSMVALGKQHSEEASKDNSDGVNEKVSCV

T3 sequence (P14416 whole entry): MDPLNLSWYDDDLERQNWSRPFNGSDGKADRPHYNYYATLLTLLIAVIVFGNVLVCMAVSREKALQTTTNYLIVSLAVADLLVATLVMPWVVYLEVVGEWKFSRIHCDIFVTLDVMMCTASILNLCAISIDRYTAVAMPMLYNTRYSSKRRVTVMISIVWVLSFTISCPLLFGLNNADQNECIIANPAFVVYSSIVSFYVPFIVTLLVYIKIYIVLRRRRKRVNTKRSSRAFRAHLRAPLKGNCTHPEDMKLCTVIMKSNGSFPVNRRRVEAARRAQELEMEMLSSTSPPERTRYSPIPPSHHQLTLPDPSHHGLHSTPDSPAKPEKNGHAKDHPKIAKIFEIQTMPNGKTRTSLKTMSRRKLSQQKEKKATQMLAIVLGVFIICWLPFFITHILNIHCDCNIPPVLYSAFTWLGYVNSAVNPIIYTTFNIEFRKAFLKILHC
T4 sequence (P50406 whole entry): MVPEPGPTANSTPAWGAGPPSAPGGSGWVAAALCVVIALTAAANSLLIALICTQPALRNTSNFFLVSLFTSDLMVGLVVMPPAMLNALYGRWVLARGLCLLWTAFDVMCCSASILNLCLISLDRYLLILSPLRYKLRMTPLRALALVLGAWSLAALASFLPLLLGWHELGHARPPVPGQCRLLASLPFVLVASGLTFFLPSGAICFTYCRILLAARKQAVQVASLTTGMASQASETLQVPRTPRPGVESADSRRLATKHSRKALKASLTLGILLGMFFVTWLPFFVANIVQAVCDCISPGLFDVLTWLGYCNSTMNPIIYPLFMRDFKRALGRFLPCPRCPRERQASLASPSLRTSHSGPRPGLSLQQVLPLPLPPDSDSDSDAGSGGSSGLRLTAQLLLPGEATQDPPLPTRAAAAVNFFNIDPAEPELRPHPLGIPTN
T2 sequence (P34969 1-432 limits assumed): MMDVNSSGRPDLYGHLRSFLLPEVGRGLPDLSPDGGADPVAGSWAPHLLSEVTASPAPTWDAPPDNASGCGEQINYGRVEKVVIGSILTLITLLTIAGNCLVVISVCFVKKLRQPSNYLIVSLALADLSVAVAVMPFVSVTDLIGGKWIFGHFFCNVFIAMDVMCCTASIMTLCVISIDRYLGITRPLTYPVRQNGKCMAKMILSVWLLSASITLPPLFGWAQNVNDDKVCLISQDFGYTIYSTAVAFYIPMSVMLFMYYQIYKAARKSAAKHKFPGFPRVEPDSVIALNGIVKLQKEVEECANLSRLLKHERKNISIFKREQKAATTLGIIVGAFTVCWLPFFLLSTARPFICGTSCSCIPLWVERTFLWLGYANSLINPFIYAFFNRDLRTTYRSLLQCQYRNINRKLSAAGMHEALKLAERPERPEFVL

SMILES | Ki [1] | Ki [2] | effect on body weight [3] | RM0 [4] | toxicity in HEK-293 cells ([5]; 0.1 μM–100 μM) | viability of HEK-293 cells ([5]; 100 μM, *** p < 0.001) | Ki [6] | day of experiment from which groups differed significantly ([7]; rats fed palatable feed, 5 mg/kg b.w. i.p. daily) | weight gain vs control group ([7]; rats fed palatable feed, 5 mg/kg b.w. i.p., 21 days) | body weight vs control animals fed standard feed ([7]; treated rats with access to preferential feed, 5 mg/kg b.w. i.p.) | Ki [8] | Ki [9] | selectivity in words ([8]; 5-HT6R vs competitive GPCRs tested) | viability of HEK-293 cells ([5]; 1 μM)
CN1CCN(c2nc(N)nc(CN3C(=O)N(Cc4ccc(Cl)cc4)C(C)(C)C3=O)n2)CC1 [Compound 6, 1-(4-Chlorobenzyl)-3-((4-amino-6-(4-methylpiperazin-1-yl)-1,3,5-triazin-2-yl)methyl)-5,5-dimethylimidazolidine-2,4-dione] | 23.3 µM | 3.71 µM | No effects on body weight | 3.39 | low | statistically significant decrease of viability | 4.1 µM | 16 days | significantly less weight gain | differed significantly | < 0.2 µM and 0.127 µM | – | – | –
CN1CCN(c2nc(N)nc(CN3C(=O)NC(c4ccc(Cl)cc4)(c4ccc(Cl)cc4)C3=O)n2)CC1 [Compound 8, 3-((4-Amino-6-(4-methylpiperazin-1-yl)-1,3,5-triazin-2-yl)methyl)-5,5-bis(4-chlorophenyl)imidazolidine-2,4-dione] | 3.05 µM | 0.594 µM | – | 4.46 | – | – | 6.85 µM | – | – | – | 1.06 µM | – | – | –
CN1CCN(c2nc(N)nc(CN3C(=O)N(Cc4ccc5ccccc5c4)C(C)(C)C3=O)n2)CC1 [Compound 18] | 5.72 µM | 1.53 µM | – | 4.04 | – | – | 0.888 µM | – | – | – | < 0.2 µM and 0.182 µM | 1.91 µM | – | –
CN1CCN(c2nc(N)nc(CN3C(=O)NC(C)(c4ccc(Cl)c(Cl)c4Cl)C3=O)n2)CC1 (stereo not drawn) [Compound 23, 3-((4-Amino-6-(4-methylpiperazin-1-yl)-1,3,5-triazin-2-yl)methyl)-5-(2,3,4-trichlorophenyl)-5-methylimidazolidine-2,4-dione] | 6.03 µM | 8.9 µM | – | 4.49 | – | – | 4.74 µM | – | – | – | < 0.2 µM and 0.195 µM | 3.43 µM | – | –
CN1CCN(c2nc(N)nc(CN3C(=O)NC(C)(c4cccc5ccccc45)C3=O)n2)CC1 (stereo not drawn) [Compound 25, 3-((4-Amino-6-(4-methylpiperazin-1-yl)-1,3,5-triazin-2-yl)methyl)-5-methyl-5-(naphthalen-1-yl)imidazolidine-2,4-dione] | 7.15 µM | 3.37 µM | – | 4.16 | – | – | 7.81 µM | – | – | – | < 0.2 µM and 0.121 µM | 8.08 µM | highly selective | –
COc1cccc2c1C(=O)c1c(O)c3c(c(O)c1C2=O)C[C@@](O)(C(=O)CO)C[C@@H]3O[C@H]1C[C@H](N)[C@H](O)[C@H](C)O1 [doxorubicin, reference compound] | – | – | – | – | – | – | – | – | – | – | – | – | – | cytotoxic
